This is an account of results in ChEMBL document CHEMBL1201862, “PubChem BioAssay data set” (2004).

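Protocol summary: plate cells (96-well), add compound at 5 concentrations, incubate 48 h, interpolate endpoints linearly. Here, GI50 denotes the concentration required for 50% inhibition of growth.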 Activity calls are given as the source filed them. Cut-off read from the data, not from the text of the source: active = GI50 up to about 1.1 µM and inactive = higher.

Test systems include A498; ACHN; BT-549; CAKI-1; DLD-1; EKVX; HCC 2998; HCT-15; HOP-62; KM12; M14; MDA-MB-231; MDA-MB-435; NCI/ADR-RES; PC-3; SF-295; SK-MEL-5; SW-620; TK-10; UACC-62.
Experiment in all cases: inhibition of tumour cell growth, NCI panel, 48 h

With `Cc1ccc(C(=O)Nc2ccc(S(=O)(=O)O)c3cc(S(=O)(=O)O)cc(S(=O)(=O)O)c23)cc1NC(=O)c1cccc(NC(=O)Nc2cccc(C(=O)Nc3cc(C(=O)Nc4ccc(S(=O)(=O)O)c5cc(S(=O)(=O)O)cc(S(=O)(=O)O)c45)ccc3C)c2)c1` [SURAMIN], the GI50 with A498 is > 84.3 µM (inactive); in the experiment with ACHN, 97.9 µM (inactive); in the experiment with BT-549, 95.7 µM (inactive); in the experiment with CAKI-1 it was 73.5 µM (inactive); with DLD-1, 97.5 µM (inactive); with EKVX it was > 69.5 µM (inactive). In addition, the GI50 is > 100 µM (inactive) in the experiment with HCC 2998; 90.8 µM in the experiment with HCT-15; > 100 µM (inactive) with HOP-62; > 67.5 µM (inactive) in the experiment with KM12; 74.8 µM (inactive) in the experiment on M14; > 100 µM (inactive) in the experiment on MDA-MB-231. In addition, the GI50 in the experiment on MDA-MB-435 was > 100 µM (inactive); in the experiment with NCI/ADR-RES, > 100 µM (inactive); in the experiment on PC-3 it was > 100 µM (inactive); in the experiment with SF-295, 69 µM (inactive); in the experiment with SK-MEL-5, > 84.7 µM (inactive); in the experiment on SW-620, 89.3 µM (inactive). The GI50 is 32 µM (inactive) with TK-10 and 54.6 µM (inactive) with UACC-62.

Turning to `C[C@H]1CC[C@H](NC(=O)N(CCCl)N=O)CC1`, the GI50 is 53 µM (inactive) with A498; 49.4 µM (inactive) in the experiment on ACHN; 24.7 µM (inactive) with BT-549; 27.2 µM (inactive) in the experiment with CAKI-1; 39.5 µM (inactive) in the experiment with DLD-1; 78.3 µM (inactive) with EKVX. For the same compound, the GI50 was 44 µM (inactive) in the experiment on HCC 2998; 40.6 µM with HCT-15; 48.3 µM (inactive) in the experiment on HOP-62; 59.3 µM (inactive) with KM12; 27.6 µM (inactive) in the experiment on M14; 48 µM (inactive) with MDA-MB-231. Further, the GI50 in the experiment on MDA-MB-435 is 28.1 µM (inactive); in the experiment on NCI/ADR-RES it was 47.1 µM (inactive); with PC-3 it was 47.9 µM (inactive); in the experiment on SF-295, 13.4 µM (inactive); with SK-MEL-5, 40.4 µM (inactive); in the experiment on SW-620 it was 31.3 µM (inactive). The GI50 is 63.4 µM (inactive) with TK-10 and 14.3 µM (inactive) in the experiment on UACC-62.

As for `S=P(N1CC1)(N1CC1)N1CC1` [THIOTEPA], the GI50 is 126 µM (inactive) with A498; 14.6 µM (inactive) in the experiment on ACHN; 175 µM (inactive) in the experiment with BT-549; 30.3 µM (inactive) in the experiment on CAKI-1; 195 µM (inactive) with DLD-1; 234 µM (inactive) with EKVX. Moreover, the GI50 is 111 µM (inactive) in the experiment on HCC 2998; 149 µM in the experiment with HCT-15; 31.3 µM (inactive) with HOP-62; 171 µM (inactive) in the experiment on KM12; 72.1 µM (inactive) in the experiment with M14; 274 µM (inactive) in the experiment with MDA-MB-231. Moreover, the GI50 with MDA-MB-435 is 158 µM (inactive); in the experiment with NCI/ADR-RES it was 79.1 µM (inactive); with PC-3, 217 µM (inactive); in the experiment with SF-295, 33.1 µM (inactive); in the experiment with SK-MEL-5, 97.9 µM (inactive); with SW-620, 140 µM (inactive). The GI50 in the experiment on TK-10 was 333 µM (inactive); in the experiment with UACC-62 it was 14.7 µM (inactive).

Take `Cc1ccccc1C1=C/C(=C(\SS/C(C(=O)c2ccc(OCC(=O)O)c(Cl)c2Cl)=C2\C=C(c3ccccc3C)SS2)C(=O)c2ccc(OCC(=O)O)c(Cl)c2Cl)SS1`: the GI50 was 32.4 µM (inactive) with A498; 23.2 µM (inactive) in the experiment with ACHN; 33.3 µM (inactive) in the experiment with BT-549; 37.6 µM (inactive) in the experiment on CAKI-1; 23.8 µM (inactive) in the experiment with DLD-1; 37.8 µM (inactive) with EKVX. The GI50 was 39.4 µM (inactive) in the experiment with HCC 2998; 24 µM in the experiment on HCT-15; 51.6 µM (inactive) in the experiment with HOP-62; 22.3 µM (inactive) with KM12; 25.5 µM (inactive) in the experiment on M14; 22.6 µM (inactive) in the experiment with MDA-MB-231. Besides, the GI50 is 36.1 µM (inactive) in the experiment on MDA-MB-435; 63 µM (inactive) with NCI/ADR-RES; 6.92 µM (inactive) with PC-3; 31.3 µM (inactive) in the experiment with SF-295; 26.3 µM (inactive) in the experiment with SK-MEL-5; 26.5 µM (inactive) in the experiment with SW-620. Moreover, the GI50 was 35.9 µM (inactive) with TK-10 and 18 µM (inactive) with UACC-62.

Regarding `C[C@H](OCc1ccccc1)C(=O)N1CCS(=O)(=O)N2CCC[C@H]2C1=O`, the GI50 in the experiment with A498, in the experiment with ACHN, with CAKI-1, in the experiment on DLD-1, with EKVX and in the experiment with HCC 2998 was > 100 µM (inactive) throughout. Further, the GI50 is over 100 µM with HCT-15; > 100 µM (inactive) with HOP-62; > 100 µM (inactive) in the experiment on KM12; > 100 µM (inactive) with M14; > 100 µM (inactive) in the experiment on SF-295; > 100 µM (inactive) in the experiment on SK-MEL-5. Besides, the GI50 in the experiment on SW-620, with TK-10 and with UACC-62 was > 100 µM (inactive) each time.

Consider `CC[N+]1(C)CCC(O)(/C=C/c2ccccc2)C(C(=O)/C=C/c2ccccc2)C1` (stereo not given), for which the GI50 in the experiment on A498 was 21.1 µM (inactive); in the experiment with ACHN, 11.1 µM (inactive); in the experiment with BT-549, 15.7 µM (inactive); with CAKI-1 it was 1.85 µM (inactive); with DLD-1, 4.98 µM (inactive); with EKVX, 22.5 µM (inactive). The GI50 in the experiment with HCC 2998 is 16.7 µM (inactive); in the experiment with HCT-15, 4.54 µM; with HOP-62, 19.6 µM (inactive); in the experiment on KM12, 3.71 µM (inactive); with M14 it was 11.3 µM (inactive); in the experiment with MDA-MB-231, 10.8 µM (inactive). In addition, the GI50 in the experiment on MDA-MB-435 is 12.2 µM (inactive); in the experiment on NCI/ADR-RES, 30.6 µM (inactive); in the experiment with PC-3, 14.6 µM (inactive); in the experiment with SF-295, 16.7 µM (inactive); in the experiment on SK-MEL-5, 16.6 µM (inactive); in the experiment on SW-620, 2.45 µM (inactive). For the same compound, the values for the GI50 in the experiment on TK-10 and with UACC-62 were 7.28 µM (inactive) and 16.9 µM (inactive), respectively.

Consider `COC(=O)/C=C1/CCC2[C@@H](C(=O)CC3[C@]2(C)CCC[C@@]3(C)C(=O)OC)C1C` (stereo not given in full), for which the GI50 in the experiment on A498 was 17.7 µM (inactive); in the experiment with ACHN it was 10.1 µM (inactive); in the experiment with CAKI-1, 5.36 µM (inactive); with DLD-1, 12.7 µM (inactive); with EKVX, 24 µM (inactive); with HCC 2998, 20.1 µM (inactive). The GI50 is 14 µM with HCT-15; 21.9 µM (inactive) with HOP-62; 12.6 µM (inactive) with KM12; 13.2 µM (inactive) in the experiment on M14; 17.7 µM (inactive) with SF-295; 5.69 µM (inactive) in the experiment on SK-MEL-5. In addition, the values for the GI50 in the experiment on SW-620, with TK-10 and with UACC-62 were 5.86 µM (inactive), 20 µM (inactive) and 10.7 µM (inactive), respectively.

`CCOc1ccc(/C=C\c2cc(OC)c(OC)c(OC)c2)cc1`: the GI50 in the experiment with A498 was 0.00124 µM (active); in the experiment with ACHN it was 0.01 µM (active); in the experiment on CAKI-1, 0.01 µM (active); in the experiment on DLD-1, 0.0194 µM (active); in the experiment on EKVX, 0.735 µM (active); in the experiment with HCC 2998, 0.0685 µM (active). Further, the GI50 with HCT-15 was 0.027 µM; with HOP-62, 0.000964 µM (active); in the experiment on KM12 it was 0.00703 µM (active); in the experiment on M14, 0.01 µM (active); with SF-295, < 0.0001 µM (active); with SK-MEL-5, 0.012 µM (active). Besides, the GI50 with SW-620 is < 0.0001 µM (active); in the experiment on TK-10, 29.6 µM (inactive); in the experiment on UACC-62, 0.01 µM (active).

On to `Cc1ccccc1C(C#N)/C(=N/NC(=O)C(=O)NN)C(=O)Nc1cccc(C(F)(F)F)c1` (stereo not given), for which the GI50 with A498, in the experiment with ACHN, in the experiment with CAKI-1, in the experiment on DLD-1, with EKVX and with HCC 2998 was > 100 µM (inactive) throughout. Also, the GI50 was over 100 µM in the experiment on HCT-15; > 100 µM (inactive) in the experiment with HOP-62; > 100 µM (inactive) with KM12; > 100 µM (inactive) with M14; > 100 µM (inactive) in the experiment on SF-295; > 100 µM (inactive) in the experiment with SK-MEL-5. For the same compound, the GI50 in the experiment with SW-620, with TK-10 and in the experiment with UACC-62 was > 100 µM (inactive) each time.
